Consider four molecules from patent US4722892A, “Monoclonal antibodies against metal chelates” (priority 1984, dated 1988).

Read-outs that look alike come from different tables or passages of the source.

Data set [1] has as its system monoclonal antibody CHA255. Put plainly: Association constants of metal chelates with monoclonal antibody CHA255 by equilibrium dialysis (method of Eisen), displacement of In(III)-(L)-aminobenzyl EDTA. The following applies: for Kd: dialysis 24h, 37°, pH 7. The class given is binding, BALB/c mice. The source says: (§1) Table I below sets forth the association constants of the two monoclonal antibodies described in Example II for a number of chelates. In Part A, the relative affinities of the antibodies for aminobenzyl EDTA complexes of In(III) and other ions are shown. In Part B, the binding constants of the antibodies for In(III) complexes with other chelating agents are shown. The metals selected for comparison were trivalent ions similar to In(III) and divalent ions whose EDTA complexes form structures similar to that of an In-EDTA complex. The binding constants for the chelates were determined by the method of Eisen, Meth. Med. Res., 10, 106 (1964) by dialysis of the antibody and metal chelates to near equilibrium (24h) at 37° in 0.05M 2-hydroxyethyl-piperazine-ethanesulfonate, 0.lM NaCl, 0.1% NaN3 and 0.1% bovine serum albumin at pH 7. The concentration of antibody binding sites inside the dialysis bag was 10^-7 M, and the concentration of free In(III)-(L)-aminobenzyl EDTA was in the same range.
(§2) Known amounts of another chelate were added to the solution after equilibrium until roughly half of the bound indium chelate had been displaced at equilibrium.
Background: Equilibrium dialysis compares concentrations on both sides of a semipermeable membrane.

Data set [2] deals with monoclonal antibody CHB235. Put plainly: Association constants of metal chelates with monoclonal antibody CHB235 by equilibrium dialysis (method of Eisen), displacement of In(III)-(L)-aminobenzyl EDTA. In kind it is binding, BALB/c mice. The following applies: dialysis 24h, 37°, pH 7.
Excerpt: as §1, §2

The conditions of data set [3]: metal-EDTA chelate (not the L-Benzyl-EDTA chelate); from Sillen and Martell / Martell and Smith; cited from earlier work.
Where [4] appears, read: Table 1 Part B, indium chelates with different chelators, read-out: K A^CHA255 (antibody binding constant for each indium chelate) (converted).
Where [5] appears, read: Table 1 Part B, indium chelates with different chelators, read-out: K A^CHA235 (antibody binding constant for each indium chelate) (converted).

As to `O=C(O)CN(CC(=O)O)CC(Cc1ccccc1)N(CC(=O)O)CC(=O)O` [D-Benzyl-EDTA], the Kd in data set [1] (setting [4]) is 15.9 nM; in data set [2] (setting [5]), 27.8 nM.
`O=C(O)CN(CCN(CC(=O)O)CC(=O)O)CC(=O)O` [EDTA]: the Kd is 5.88 nM in data set [1] (setting [4]) and 7.69 nM in data set [2] (setting [5]).
As for `O=C(O)CN(CCO)CCN(CC(=O)O)CC(=O)O` [HED3A], the results for the Kd in data set [1] (setting [4]) and in data set [2] (setting [5]) were 23.8 nM and 25 nM, respectively.
As for In(III)-(L)-aminobenzyl EDTA, the Kd in data set [1] (Table 1 Part A, coefficient of variation in parentheses, read-out: K A^CHA255 (antibody binding constant for metal-L-Benzyl-EDTA chelate) (converted)) was 0.25 nM; in data set [1] (setting [4]) it was 0.25 nM; in data set [2] (Table 1 Part A, coefficient of variation on next line, read-out: K A^CHB235 (antibody binding constant for metal-L-Benzyl-EDTA chelate) (converted)), 9.09 nM; in data set [2] (setting [5]), 9.09 nM. For the same molecule, the “affinity (KA)” value in data set [1] (summary statement, antibody not named) was “greater than 10^9 M^-1”. Also, the “log K S^EDTA(M) (logarithm of the stability constant for each metal-EDTA chelate)” value in data set [3] is given as 25.0.
